The structures appear in SMILES notation.

The nature of data set [1]: Oral bioavailability in Sprague-Dawley rat plasma at 100 mg/kg measured up to 48 hrs by LC-MS/MS analysis. The class given is ADME, organism-based.
Data set [2] can be described thus: Clearance in Sprague-Dawley rat plasma at 10 mg/kg, iv measured up to 48 hrs by LC-MS/MS analysis. Type of data set: ADME, organism-based.
Data set [3] has as its system A549. Put plainly: Antiproliferative activity against human A549 cells assessed as reduction in cell viability incubated for 72 hrs by Celltiter-glo assay. Type of data set: functional, cell-based. To be noted: A549, 72 h.
For data set [4], the system named is A549. Put plainly: Inhibition of colony formation in human A549 cells assessed as reduction of colony number measured after 4 days by crystal violet staining-based colony formation assay. The class given is functional, cell-based. To be noted: dose 10-1000 nM, time 4.0 day.
Data set [5] can be described thus: Half life in Sprague-Dawley rat plasma at 10 mg/kg, iv measured up to 48 hrs by LC-MS/MS analysis. The class given is ADME, organism-based.
Data set [6] in a line: AUC(0 to t) in Sprague-Dawley rat plasma at 10 mg/kg, iv measured up to 48 hrs by LC-MS/MS analysis. Type of data set: ADME, organism-based. Further details: dose 10 mg/kg, time < 48 hrs, route iv.
A short description of data set [7]: AUC(0 to infinity) in Sprague-Dawley rat plasma at 10 mg/kg, iv measured up to 48 hrs by LC-MS/MS analysis. Type of data set: ADME, organism-based. Further details: dose 10 mg/kg, time < 48 hrs, route iv.
Data set [8] is described as follows: MRT(0 to infinity) in Sprague-Dawley rat plasma at 100 mg/kg, po measured up to 48 hrs by LC-MS/MS analysis. Type of data set: ADME, organism-based.
Data set [9] in a line: Toxicity in Balb/c nude mouse xenografted with human A549 cells assessed as change in body weight at 100 to 150 mg/kg, po administered once daily 24 days. The class given is organism-based. To be noted: in vivo, 576 h, dose 100-150 mg/kg, time 24 day.
The nature of data set [10]: Mutagenicity in Salmonella typhimurium TA1537 measured at 1.5 to 1000 ug per well for 48 to 72 hrs by mini-Ames test. Particulars: in vivo; dose lower 1.5 µg, time lower 48 hrs, dose upper 1000 µg, time upper 72 hrs. The class given is toxicity, Salmonella enterica subsp. enterica serovar Typhimurium.
Data set [11] is described as follows: Mutagenicity in Salmonella typhimurium TA1537 measured at 1.5 to 1000 ug per well for 48 to 72 hrs in presence of S9 liver fraction by mini-Ames test. Type of data set: toxicity, subcellular, Salmonella enterica subsp. enterica serovar Typhimurium. To be noted: dose lower 1.5 µg, time lower 48 hrs, dose upper 1000 µg, time upper 72 hrs.

As for `O=C(Cc1cccc(Oc2ccccc2)c1)Nc1nnc(N[C@@H]2CCN(c3cccnn3)C2)s1`, in [1], the bioavailability stood at 5%. Moreover, in data set [2], the clearance is 36.4 mL/min/kg. In addition, the IC50 in the data set on A549 [3] was 4.04 nM. For the same compound, the inhibition entry with A549 [4] is “Dose-Dependent Effect”. Moreover, the half-life in data set [5] was 5.06 h. In addition, the AUC(0-t) at 48 h in data set [6] was found to be 4630 ng·h/mL. In data set [7], this compound had an AUC(0-inf) of 4630 ng·h/mL. This compound also registered an MRT inf in [8] of 3.83 h. The Activity result in [9], in data set [10] and in data set [11] was “Non-Toxic” in each case.

Source of the values: ChEMBL document CHEMBL5370626, “Targeting the Subpocket Enables the Discovery of Thiadiazole-Pyridazine Derivatives as Glutaminase C Inhibitors” (ACS Med Chem Lett, 2023).
